These results are taken from patent US6596696B1, “Malto-oligosaccharide derivatives and uses thereof” (Kikkoman Corporation, priority 1999, dated 2003).

Series [1] deals with T1, α-amylase derived from human pancreatic juice (HPA) (Homo sapiens, UniProt P04746).
T1 construct: purchased International Reagents Corp. Japan Calibzyme AMY
T1 sequence (P04746 16-511): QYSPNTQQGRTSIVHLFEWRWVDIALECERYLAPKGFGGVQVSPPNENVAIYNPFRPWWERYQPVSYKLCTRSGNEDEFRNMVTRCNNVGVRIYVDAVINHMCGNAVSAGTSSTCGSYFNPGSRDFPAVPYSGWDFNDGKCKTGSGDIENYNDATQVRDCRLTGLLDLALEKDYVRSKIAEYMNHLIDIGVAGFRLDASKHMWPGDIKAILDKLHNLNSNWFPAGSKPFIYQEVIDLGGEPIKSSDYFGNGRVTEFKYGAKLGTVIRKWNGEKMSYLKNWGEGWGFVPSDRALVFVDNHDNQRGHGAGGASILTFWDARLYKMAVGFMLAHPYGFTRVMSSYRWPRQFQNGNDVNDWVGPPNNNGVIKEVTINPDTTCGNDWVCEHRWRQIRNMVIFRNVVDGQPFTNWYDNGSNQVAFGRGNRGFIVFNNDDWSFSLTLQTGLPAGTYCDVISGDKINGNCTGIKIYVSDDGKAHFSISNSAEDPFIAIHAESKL
Put plainly: In vitro amylase activity inhibition test, HPA (blue starch, Neo Amylase Test). The following applies: 37° C., 30 minutes, blue starch substrate. It is filed as biochemical. The protocol:
(§1) (1) Preparation of Human α-amylase Solution
(§2) Commercial HPA and HSA were dissolved in purified water to a concentration of 350 IU/1 to prepare an α-amylase solution. As commercial HPA and HSA, “Calibzyme AMY” (available from International Reagents Corp. Japan) was used. The α-amylase activity was determined according to the calibration curve of a commercial α-amylase determining reagent “Neo Amylase Test ┌FDAIICHI┘” (available from Daiichi Pure Chemicals Co., Ltd., Japan).
(§3) (2) Preparation of Inhibitor Solution
(§4) DOG2Az obtained in Example 1, GDOG2Az obtained in Example 2 and comparative G2Az (6^3-position non-modified maltoligosaccharide derivative disclosed in JP-A-9-278789) represented by the following formula
(§5) (3) were diluted with distilled water so that the final concentration would become 5 to 0.0001 mM. [drawing 4]
(§6) (3) Determination of Human α-amylase Inhibitory Activity (IC50) of Inhibitor Solution
(§7) 3.0 ml of distilled water, 1.0 ml of the inhibitor solution, Neo Amylase Test ┌DAIICHI┘ (produced by Daiichi Pure Chemicals Co., Ltd., Japan) and one tablet of blue starch were added to 100 μl of HPA or HSA solution, and the mixture was stirred by a mixer for about 10 seconds and then heated at 37° C. for 30 minutes. Thereafter, 1.0 ml of 0.5 N sodium hydroxide solution was added and the mixture was further stirred. Then the reaction was stopped, the solution was centrifuged (1,500 G, 5 minutes) and absorbance of the supernatant at 620 nm was measured. In blank, distilled water was used in place of the inhibitor solution. “IC50” indicates the final concentration (mM) of the inhibitor material required for inhibiting the activity of HPA or HSA solution by 50%.

Series [2] addresses T2, α-amylase derived from human salivary gland (HSA) (Homo sapiens, UniProt P0DUB6).
T2 construct: purchased International Reagents Corp. Japan Calibzyme AMY
T2 sequence (P0DUB6 16-511): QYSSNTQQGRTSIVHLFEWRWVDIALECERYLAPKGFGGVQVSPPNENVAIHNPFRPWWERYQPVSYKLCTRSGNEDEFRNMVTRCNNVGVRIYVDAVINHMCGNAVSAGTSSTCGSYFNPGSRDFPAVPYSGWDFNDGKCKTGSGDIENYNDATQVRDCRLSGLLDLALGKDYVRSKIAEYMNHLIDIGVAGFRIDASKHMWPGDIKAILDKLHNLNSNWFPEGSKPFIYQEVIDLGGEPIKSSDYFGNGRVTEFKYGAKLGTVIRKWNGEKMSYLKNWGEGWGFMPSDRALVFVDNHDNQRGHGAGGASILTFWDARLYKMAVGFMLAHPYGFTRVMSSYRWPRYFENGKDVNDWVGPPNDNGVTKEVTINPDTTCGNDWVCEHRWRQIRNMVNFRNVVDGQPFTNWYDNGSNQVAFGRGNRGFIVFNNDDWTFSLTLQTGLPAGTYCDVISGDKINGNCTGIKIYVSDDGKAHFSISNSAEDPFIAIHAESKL
Put plainly: In vitro amylase activity inhibition test, HSA (blue starch, Neo Amylase Test). It counts as biochemical. The conditions noted are these: 37° C., 30 minutes, blue starch substrate. The protocol:
as §1, §2, §3, §4, §5, §6, §7

For the next series, the system named is blood glucose level. Description: Anti-diabetic action: inhibition of rise of blood glucose level after corn starch intake in mice. It is filed as in vivo, mice (Crj:CD-1(ICR)). The conditions noted are these: for Significant test (t-test): P value, inhibition of rise of blood glucose level; for Blood glucose level before intake: mice fasted 20 hours, 0 min; for Blood glucose level before intake / Blood glucose level 30 minute after intake: n=5, in mg/dL (unit assumed); for Blood glucose level 30 minute after intake: 30 minutes. The protocol:
Commercially available healthy mice (Crj:CD-1(ICR) with body weight of 20.5 to 26.0 g, bred by Japan Charles Liver Co., Ltd.), were used for the test.
The mice were divided into three groups (n=5). After left fasting for 20 hours, the mice of the compound-administered groups were forced to take orally DOG2Az, G2Az and corn starch as saccharide which was made into a liquid state with sterilized distilled water.
Blood was collected from the orbital vein of each mouse before and after the intake of the materials (0 and after 30 minutes), and the amount of glucose in blood was measured to determine the inhibitory effect against the rise of blood glucose level, i.e. anti-diabetic action of the compounds, after intake of corn starch. The inhibitory effect against the rise of blood glucose level was judged by t-test. Glucose concentration in blood was measured by a blood glucose level analyzer “ANTSENSE” (mfd. by Bayer Sankyo Ltd.).

Usually IC50 stands for the point on the concentration scale where inhibition reaches its midpoint. By melting point is commonly meant the temperature, or range, at which the solid turns liquid.

As for `C[C@H]1O[C@H](O[C@H]2[C@H](O)[C@@H](O)[C@@H](O[C@H]3[C@H](O)[C@@H](O)CNC[C@H]3O)O[C@@H]2CO)[C@H](O)[C@@H](O)[C@@H]1O[C@H]1O[C@H](CO)[C@@H](O)[C@H](O)[C@H]1O` [GDOG2Az, (3R, 4R, 5R, 6S)-Hexahydro-3,5,6-trihydroxy-1H-azepine-4-yl O-(α-D-glucopyranosyl)-(1→4)-O-(6-deoxy-α-D-glucopyranosyl)-(1→4)-α-D-glucopyranoside], the figures for the IC50 in series [1] and in series [2] were 0.026 mM and 0.028 mM, respectively.

In the case of `OCC1OC(OC2C(CO)OC(OC3C(O)CNCC(O)C3O)C(O)C2O)C(O)C(O)C1O` (stereo not drawn) [Example G2Az, reference compound], the results for the IC50 in series [1] and in series [2] were 0.043 mM and 0.082 mM, respectively. In the series with blood glucose level (60 mg/kg oral + corn starch 2,000 mg/kg), the “Significant test (t-test)” value was “P < 1%”. Also, the “Blood glucose level before intake” value with blood glucose level (group given 60 mg/kg oral + corn starch 2,000 mg/kg) worked out at 102 ± 21. Further, the “Blood glucose level 30 minute after intake” value in the series with blood glucose level (mice, 60 mg/kg oral + corn starch 2,000 mg/kg) is given as 169 ± 8.

With `C[C@H]1O[C@H](O[C@H]2[C@H](O)[C@@H](O)[C@@H](O[C@H]3[C@H](O)[C@@H](O)CNC[C@H]3O)O[C@@H]2CO)[C@H](O)[C@@H](O)[C@@H]1O[C@H]1O[C@H](CO)[C@@H](O)[C@H](O)[C@H]1O` (hydrate or solvate) [GDOG2Az, (3R, 4R, 5R, 6S)-Hexahydro-3,5,6-trihydroxy-1H-azepine-4-yl O-(α-D-glucopyranosyl)-(1→4)-O-(6-deoxy-α-D-glucopyranosyl)-(1→4)-α-D-glucopyranoside], the melting point is 144 to 146 °C (dec.).

With `C[C@H]1O[C@H](O[C@H]2[C@H](O)[C@@H](O)[C@@H](O[C@H]3[C@H](O)[C@@H](O)CNC[C@H]3O)O[C@@H]2CO)[C@H](O)[C@@H](O)[C@@H]1O` (hydrate or solvate) [DOG2Az, (3R, 4R, 5R, 6S)-Hexahydro-3,5,6-trihydroxy-1H-azepine-4-yl O-(6-deoxy-α-D-glucopyranosyl)-(1→4)-α-D-glucopyranoside], the melting point is 132 to 134 °C (dec.).

Regarding `C[C@H]1O[C@H](O[C@H]2[C@H](O)[C@@H](O)[C@@H](O[C@H]3[C@H](O)[C@@H](O)CNC[C@H]3O)O[C@@H]2CO)[C@H](O)[C@@H](O)[C@@H]1O` [DOG2Az, (3R, 4R, 5R, 6S)-Hexahydro-3,5,6-trihydroxy-1H-azepine-4-yl O-(6-deoxy-α-D-glucopyranosyl)-(1→4)-α-D-glucopyranoside], the half-inhibitory concentration (IC50) in series [1] stood at 0.024 mM; in series [2], 0.037 mM. For the same compound, in the series with blood glucose level (5 mg/kg oral + corn starch 2,000 mg/kg), the “Significant test (t-test)” value was “P < 0.1%”. Moreover, in the series on blood glucose level (group given 5 mg/kg oral + corn starch 2,000 mg/kg), the “Blood glucose level before intake” value is on record as 101 ± 18. In addition, in the series with blood glucose level (mice, 5 mg/kg oral + corn starch 2,000 mg/kg), the “Blood glucose level 30 minute after intake” value came to 136 ± 23. Besides, the “rise of blood glucose level in comparison with the control group” value with blood glucose level (mice, 5 mg/kg oral + corn starch 2,000 mg/kg, result in words) is listed as “suppressed significantly”.
